PMC10303371, “Activity and Selectivity of Novel Chemical Metallic Complexes with Potential Anticancer Effects on Melanoma Cells” (Molecules, 2023)
Read-outs that look alike come from different tables or passages of the source.

How the values were obtained:
[1] = tested on: MeWo 3D culture; assay: Live/Dead assay on 3D MeWo cultures (spheroids); type: cell-based, human; conditions: 3D MeWo culture, 5 μM, 24 h, semi-quantitative
Description: High density 3D cultures were obtained using 96-well ultra-low attachment microplates (Corning, Manassas, VA, USA). Briefly, MeWo cells were resuspended at a density of 500.000 cells/mL. […] For the cell viability assay, the average value of 10 3D-systems (n = 3) were considered.
Cell viability of 3D cultures was detected by fluorescence Live/Dead assay after cellular aggregate formation. Calcein AM solution (Cat. no C1359, Sigma-Aldrich) was used to stain live cells, while cell membrane-impermeable Ethidium homodimer I solution (Cat. no E1903, Sigma-Aldrich) for nuclei of dead cells.

[2] = Hydrolytic stability by 1H-NMR; type: physicochemical; conditions: D2O-10% of DMSO-d6; 0 h, 2 h, 4 h, 24 h, 48 h and 72 h
Description: 10% of DMSO-d6, following the procedure in ref. [23]. Figures S3–S6 show the 1H-NMR […]
time. These preliminary studies can be reasonably extended to all synthesized complexes because they have a similar structure. Thus, it is possible to affirm th at these complexes are […]
(1 picture or pasted object on this page, not shown here)

[3] = tested on: MeWo cells; assay: MTT cell viability assay on 2D MeWo culture; type: cell-based, human; conditions: for inhibition of MeWo viability / decrease in cell viability: 20 μM; for inhibition of MeWo viability / change of cell viability (in words): 24 h
Procedure: (§1) IC50 values for MeWo cells were calculated with GraphPad Prism software (6.0 for Windows, LLC, San Diego, CA, USA).
(§2) Then, the supernatant was removed and 100 μL of dimethyl sulfoxide (DMSO) was added to solubilize formazan crystals. The absorbance was measured at 490 nm using a microplate reader (Infinite F200 PRO, Tecan Group Ltd., Männedorf, Switzerland) Cell metabolic activity was calculated as percentage compared to the control group (considered as 100%), according to Equation (1):(1) % Cell metabolic activity=Abs of sample−Abs blank/Abs of control−Abs blank×100

[4] = tested on: MeWo cells; assay: Time-Lapse Live-Cell Imaging of 2D MeWo culture; type: cell-based, human; conditions: 20 μM
Procedure: MeWo culture was performed using Time-Lapse Live-Cell Imaging System formed by a Bold Line Top Stage Incubator for 35 mm Petri dishes (H301-T UNIT BL; Okolab S.r.l., Pozzuoli, Italy), that allows the acquisition of the same field along the culture time in fixed culture point mapped by the fully automated stage. The incubator has independent control of gas (CO2/O2), humidity and temperature, and ensured an environment with 37 °C of temperature and 5% of CO2 atmosphere. The system allows acquisition in brightfield and fluorescence. All images of different fields within the culture chamber were achieved automatically, using Olympus IX83 time-lapse microscope by motorized stage and CCD monochrome camera (mod. XM10, Olympus, Segrate, Italy), and with all operations under the control of the X-Excellence advanced live-cell imaging software (version 2.0, Olympus Inc., Segrate, Italy). In our case, cell images were captured in brightfield using a 10× objective every 4 h intervals. The related videos reported in Supplementary Materials were generated with windows movie maker software (version 2.0, Microsoft) starting from the acquired frames.

[5] = tested on: HaCaT cells; assay: MTT selectivity study on HaCaT non-cancerous cell line; type: cell-based, human; conditions: 5 μM, 48 h
Procedure: as §1, §2

[6] = tested on: MeWo cells; assay: Apoptosis by Annexin V / propidium iodide flow cytometry; type: cell-based, human; conditions: 20 μM
Procedure: Annexin V FITC Apoptosis Detection Kit (Cat. […] Then, 5 μL of Annexin V FITC Conjugate and 5 μL of propidium Iodide PE Solution were added to 100 μL of the cell suspension (1 × 10^6 cells/mL). After incubation for 15 min at room temperature with light protection, 400 μL of Annexin V Binding Solution was added for flow cytometry analysis.

[7] = tested on: histone H2AX; assay: Western blot of histone H2AX phosphorylation in MeWo cells; type: cell-based, human; conditions: 20 μM
Procedure: (§3) Human melanoma cells (MeWo; ATCC®, HTB-65^TM) were grown in 100 mm Petri Dishes at a density of 1.5 × 10^4 cells/cm^2 and treated with 20 μM of AuM1 (5′-15′-30′-1 h) and AgM1 (5′-15′-30′-1 h-24 h). After treatments, cells were harvested and lysed in RIPA buffer (NaCl 150 mM, 1% triton X-100 pH 8.0, 0.5% sodium deoxycholate, 0.1% SDS, 50 mM Tris, pH 8.0), supplemented with protease inhibitors cocktail and phosphatase inhibitors (Merck), 1 h on ice. Lysates were then centrifuged for 30 min at 15,000× g and supernatant were transferred to a new 1.5 mL tube. Protein amount was determined by Bradford assay (Bio-Rad, Hercules, CA, USA) and 15 μg of total protein extracts were separated by SDS–PAGE gels and transferred onto nitrocellulose membranes. […] Immunoreactivity was detected by sequential incubation with appropriate horseradish peroxidase-conjugated secondary antibodies (Merck) for 1 h at room temperature and Pierce ECL detection reagents (Thermo Scientific, Rockford, IL, USA) on an X-ray film. […] The area under the curves, each relative to a band, was determined and the background was subtracted from the calculated values.

[8] = tested on: p-ERK 1/2; assay: Western blot of ERK phosphorylation in MeWo cells; type: cell-based, human; conditions: 20 μM
Procedure: as §3

[9] = tested on: MeWo cells; assay: Cell cycle analysis by DNA content (propidium iodide) flow cytometry; type: cell-based, human; conditions: 48 h
Procedure: Human melanoma cells (MeWo, HTB-65^TM; ATCC®, Manassas, VA, USA) were grown in 24-well plates at a density of 1 × 10^4 cells/cm^2 and treated with AuM1 (at 1 μM and 5 μM) and AgM1 (at 10 μM and 20 μM) for 24 h and 48 h. After treatments, cells were transferred in 15 mL polypropylene V-bottomed tubes, rinsed twice in ice cold PBS, and stained in freshly prepared PBS buffer containing 1 mg/mL propidium iodide (PI) (Merck Life Science S.r.l., Milan, Italy), 110,000 U/mL RNase A (Merck) and 0.1% Triton X-100 (Merck Life Science S.r.l., Milan, Italy). Cells were incubated 30 min at 4 °C in the dark and analysed with a BD FACSVerse flow cytometer (Becton Dickinson, BD, Franklin Lakes, NJ, USA) counting 1 × 10^4 events per sample. G1, S and G2/M cell cycle phase percentages were analysed by ModFit LT software (version 3.0).

[10] = Thermal stability; type: physicochemical; conditions: decompose before melting
[11] = MeWo, MTT, 24 h of treatment, read-out: IC50 24 h
[12] = MeWo, MTT, 48 h of treatment, read-out: IC50 48 h
[13] = 5 μM, screening of derivatives, MTT

| SMILES | red signal (dead cells), Live/Dead assay [1] [%] | hydrolytic stability (1H-NMR spectra over time) [2] | inhibition of MeWo viability [3] | reduction of cell viability ([3]; MeWo, 10 μM, 48 h) | decrease in cell viability ([3]; MeWo, 48 h) | IC50 [3, 11] [µM] | IC50 [3, 12] [µM] | time of treatment after which cell death was observed [4] [h] | further results |
| --- | --- | --- | --- | --- | --- | --- | --- | --- | --- |
| CC(C)(C)OC(=O)N[C@@H](Cc1ccccc1)C(=O)O.CN1[CH-]N(CC(O)c2ccccc2)C(Cl)=C1Cl.[Au+] [AuM1Phe] | 60 | no changes are observed | – | – | – | – | – | – | – |
| C[n+]1ccn(CC(O)c2ccccc2)[c]1[Ag-][I] (racemic) [AgL20] | – | – | able to inhibit MeWo viability | about 10% | more than 50% | ~19.4 | 18.3 | > 96 | change of cell viability (in words) ([3]; MeWo, 10 μM): apparent increase in cell viability |
| C[n+]1c(Cl)c(Cl)n(CC(O)c2ccccc2)[c]1[Au-][Cl] (racemic) [AuM1] | 45 | no changes are observed | able to inhibit MeWo viability | – | more than 50% | 5.48 | 3.12 | 8 | MeWo viability ([3]; 5 μM, 48 h): 30%; MeWo viability reduction ([3]; 5 μM, 48 h): 70%; reduction of cell viability ([3]; MeWo, 48 h, concentration not restated, by context 10 μM): 95%; HaCaT viability [5]: 70%; selectivity MeWo vs HaCaT (in words) [5]: most selective; apoptotic cells ([6]; 8 h of exposure, control 11.7%): 63.8%; phosphorylation of histone H2AX ([7]; already after 5 min (5'-15'-30'-1 h)): significant and marked increase; ERK phosphorylation (p-ERK) [8]: pronounced and significant decrease; cell cycle progression ([9]; 5 μM): G0/G1 phase cell cycle arrest |
| N.N.[Cl][Pt][Cl] [cisplatin, reference compound] | – | – | – | – | – | – | – | – | inhibition of MeWo cultures ([3]; even at 20 μM): not inhibited |
| C[n+]1ccn(CC(O)c2ccccc2)[c]1[Au-][Cl] (racemic) [AuL20] | – | – | able to inhibit MeWo viability | about 10% | 25% | ~24.6 | 31.1 | > 40 | change of cell viability (in words) ([3]; MeWo, 10 μM): apparent increase in cell viability |
| C[n+]1c(Cl)c(Cl)n(CC(O)c2ccccc2)[c]1[Ag-][I] (racemic) [AgM1] | – | – | able to inhibit MeWo viability | about 10% | more than 50% | 15.4 | 14.8 | 96 | reduction in cell viability ([3]; MeWo, 1 μM, 48 h): 30%; Minimum Inhibitory Concentration (MIC) ([3]; MeWo, 48 h): 1 µM; apoptotic cells ([6]; 96 h of treatment): ~6.7%; phosphorylation of histone H2AX ([7]; at 5'-30'-1 h): significantly increase; ERK phosphorylation (p-ERK) [8]: pronounced and significant decrease; cell cycle progression ([9]; 20 μM): G0/G1 phase cell cycle arrest |
| CC(C)(C)OC(=O)N[C@@H](Cc1ccccc1)C(=O)[O-].[Ag+] [PheAg, Boc-L-Phenylalanine silver salt] | 50 | no changes are observed | – | – | – | – | – | – | MeWo viability reduction [3, 13]: up to 80% |
| Cn1c(Cl)c(Cl)[n+](CC(O)c2ccccc2)[c]1[Ag-][O]C(=O)CNC(=O)OC(C)(C)C (stereo not drawn) [AgM1Gly] | – | no changes are observed | – | – | – | – | – | – | thermally stable up to temperature [10]: around 150 °C |
| CC(C)(C)OC(=O)NCC(=O)[O-].[Ag+] [GlyAg, Boc-Glycine silver salt] | – | – | – | – | – | – | – | – | MeWo viability reduction [3, 13]: up to 80% |
